Read-outs that look alike come from different tables or passages of the source.
Key:
[1] = Hydrolysis Assay of Example A1 (conversion by LCMS); type: physicochemical; settings: for Conversion (%) / Notes (hydrolysis): 0.5 mM, 0.01M HCl
Protocol: The hydrolysis kinetics was under a certain temperature and measured by LCMS at a certain time interval. The corresponding LCMS chromatograms were recorded and the conversions were calculated. The hydrolysis conditions and the data were summarized in below table. LCMS spectra were obtained using Agilent 1200/G1956A or SHIMADZU LCMS-2020. Standard LCMS conditions were as follows (running time 1.55 minutes): • Acidic condition: Mobile Phase A: 0.0375% TFA in water (v/v). Mobile Phase B: 0.01875% TFA in acetonitrile (v/v); Column: Kinetex EVO C18 30*2.1 mm, 5 μm. • Basic condition: Mobile Phase A: 0.025% NH3·H2O in water (v/v). Mobile Phase B: Acetonitrile; Column: Kinetex EVO C18 2.1×30 mm, 5 μm. • Conversion (%)=peak area 1/(peak area 1+peak area 2)*100%, peak area 1 is the integration of hydrolyzed product, peak area 2 is the integration of starting material.

[2] = type: physicochemical; settings: SGF with pepsin, pH 1.5, 37° C., 0.5 mM
[3] = 0 min, 5 μM
[4] = Plasma Stability Assay of Example A3, human plasma; settings: 5 μM, 37° C., % of prodrug compound remaining
[5] = Plasma Stability Assay of Example A3, mouse plasma; settings: 5 μM, 37° C., % of prodrug compound remaining
[6] = type: physicochemical; settings: DI water, 25° C., 0.5 mM
[7] = 5 μM

SMILES | Condition 1 Conversion (%) ([2]; time 1 min) | Condition 1 Conversion (%) ([2]; time 5 min) | Condition 1 Conversion (%) ([2]; time 30 min) | Condition 1 Conversion (%) ([2]; time 1 h) | Condition 1 Conversion (%) ([2]; time 4 h) | Condition 1 Conversion (%) ([2]; time 24 h) | Human Plasma Prodrug (%) ([4]; 0 min) | Human Plasma Prodrug (%) ([4]; 15 min) | Human Plasma Prodrug (%) ([4]; 30 min) | Human Plasma Prodrug (%) ([4]; 60 min) | Human Plasma Prodrug (%) ([4]; 120 min) | Human Plasma Prodrug (%) ([4]; 240 min) | Mouse Plasma Prodrug (%) ([5]; 0 min) | Mouse Plasma Prodrug (%) ([5]; 15 min) | Mouse Plasma Prodrug (%) ([5]; 30 min) | Mouse Plasma Prodrug (%) ([5]; 60 min) | Mouse Plasma Prodrug (%) ([5]; 120 min) | Mouse Plasma Prodrug (%) ([5]; 240 min) | Condition 2 Conversion (%) ([6]; time 1 min) | Condition 2 Conversion (%) ([6]; time 5 min) | further results
COc1ccc([C@]23CCN(C)[C@H]2CC2(CC3)SCCS2)cc1OC (racemic) [Compound 014, (7′aS)-3′a-(3,4-dimethoxyphenyl)-1′-methyl-spiro[1,3-dithiolane-2,6′-2,3,4,5,7,7a-hexahydroindole]] |  |  |  |  |  |  |  |  |  |  |  |  |  |  |  |  |  |  |  |  | Conversion (%) ([1]; pH = 2.0, 25° C., 0-24 h): 0%; Notes (hydrolysis) ([1]; pH = 2.0, 25° C., 0-24 h): Stable
COc1ccc([C@]23CCN(C)[C@H]2CC2(CC3)OCCO2)cc1OC (racemic) [Compound 013, 3′a-(3,4-dimethoxyphenyl)-1′-methyl-spiro[1,3-dioxolane-2,6′-2,3,4,5,7,7a-hexahydroindole]] |  |  |  |  |  |  |  |  |  |  |  |  |  |  |  |  |  |  |  |  | conversion to mesembrine in the Hydrolysis Assay ([1]; acidic pH 2.0, 5° C. as printed): not at 5 °C; conversion to mesembrine in the Hydrolysis Assay ([1]; acidic pH 2.0, temperatures of 37 and 50° C.): converted to mesembrine; Conversion (%) ([1]; pH = 2.0, 25° C., 0-24 h): 0%; Notes (hydrolysis) ([1]; pH = 2.0, 25° C., 0-24 h): Stable; Conversion (%) ([1]; pH = 2.0, 37° C., 16 h): 17%; Conversion (%) ([1]; pH = 2.0, 37° C., 24 h): 22%; Conversion (%) ([1]; pH = 2.0, 37° C., 42 h): 35%; Conversion (%) ([1]; pH = 2.0, 37° C., 56 h): 50%; Conversion (%) ([1]; pH = 2.0, 37° C., 7 d): 77%; Conversion (%) ([1]; pH = 2.0, 50° C., 10 min): 1%; Conversion (%) ([1]; pH = 2.0, 50° C., 40 min): 2%; Conversion (%) ([1]; pH = 2.0, 50° C., 120 min): 19%; Conversion (%) ([1]; pH = 2.0, 50° C., 22 h): 90%
COc1ccc([C@@]23CCC(OC(=O)c4ccc(N(C)C)cc4)=C[C@@H]2N(C)CC3)cc1OC [Compound 355, [(3aS,7aS)-3a-(3,4-dimethoxyphenyl)-1-methyl-3,4,5,7a-tetrahydro-2H-indol-6-yl]4-(dimethylamino)benzoate] | 0 | 0 | 0 | 0 | 0 | 0 | 100.0 | >99 | >99 | >99 | >99 | 93.2 | 100.0 | 50.6 | 30.8 | 9.9 | 0.5 | 0.0 | 0 | 0 | Human Plasma Compound 001 (%) [3]: 0.0%; Condition 2 Conversion (%) ([6]; time 30 min): 0%; Condition 2 Conversion (%) ([6]; time 1 h): 0%; Condition 2 Conversion (%) ([6]; time 4 h): 0%; Condition 2 Conversion (%) ([6]; time 24 h): 0%
COc1ccc([C@@]23CC/C(=N\NC(=O)c4cccnc4)C[C@@H]2N(C)CC3)cc1OC [Compound 036, N-[[(3aS,7aS)-3a-(3,4-dimethoxyphenyl)-1-methyl-2,3,4,5,7,7a-hexahydroindol-6-ylidene]amino]pyridine-3-carboxamide] | 100 | 100 | 100 | 100 | 100 | 100 |  |  |  |  |  |  |  |  |  |  |  |  |  |  | Notes (hydrolysis) ([1]; pH = 2.0, 37° C., 0 to 1 min): Hydrolyzed; Conversion (%) ([1]; pH = 2.0, 37° C., 1 min): 100%; Conversion (%) ([1]; pH = 2.0, 37° C., time 0): 0%
COc1ccc([C@@]23CCC(=NO)C[C@@H]2N(C)CC3)cc1OC (mixture of isomers) [Compound 037] | 0 | 0 | 82.3 | 89 | 89.2 | 89.5 |  |  |  |  |  |  |  |  |  |  |  |  |  |  | conversion to mesembrine in the Hydrolysis Assay ([1]; acidic pH 2.0, temperatures of 25 or 37° C.): converted to mesembrine; Conversion (%) ([1]; pH = 2.0, 37° C., 10 min): 59%; Conversion (%) ([1]; pH = 2.0, 37° C., 60 min): 84%; Conversion (%) ([1]; pH = 2.0, 37° C., 90 min): 87%
C=C(C)C(=O)OC1=C[C@@H]2N(C)CC[C@]2(c2ccc(OC)c(OC)c2)CC1 [Compound 315, [(3aS,7aS)-3a-(3,4-dimethoxyphenyl)-1-methyl-3,4,5,7a-tetrahydro-2H-indol-6-yl]-2-methylprop-2-enoate] | 0 | 0 | 0 | 0 | 0 | 0 | 100.0 | 16.6 | 2.3 | 0.5 | 0.2 | 0.0 | 100.0 | 5.3 | 2.4 | 1.3 | 2.0 | 1.9 | 0 | 0 | Mouse Plasma Compound 001 (%) ([7]; 15 min): 60.4%; Mouse Plasma Compound 001 (%) ([7]; 30 min): 61.9%; Mouse Plasma Compound 001 (%) ([7]; 120 min): 57.3%; Mouse Plasma Compound 001 (%) ([7]; 240 min): 55.8%; Condition 2 Conversion (%) ([6]; time 30 min): 0%; Condition 2 Conversion (%) ([6]; time 1 h): 0%; Condition 2 Conversion (%) ([6]; time 4 h): 0%; Condition 2 Conversion (%) ([6]; time 24 h): 0%
C/C=C(\C)C(=O)OC1=C[C@@H]2N(C)CC[C@]2(c2ccc(OC)c(OC)c2)CC1 [Compound 313, [(3aS,7aS)-3a-(3,4-dimethoxyphenyl)-1-methyl-3,4,5,7a-tetrahydro-2H-indol-6-yl](E)-2-methylbut-2-enoate] | 0 | 0 | 0 | 0 | 0 | 0 | 100.0 | 62.2 | 35.1 | 12.8 | 2.4 | 0.4 | 100.0 | 2.1 | 0.7 | 0.1 | 0.0 | 0.0 | 0 | 0 | Mouse Plasma Compound 001 (%) ([7]; 15 min): 37.2%; Mouse Plasma Compound 001 (%) ([7]; 30 min): 36.3%; Mouse Plasma Compound 001 (%) ([7]; 60 min): 37.1%; Mouse Plasma Compound 001 (%) ([7]; 120 min): 35.2%; Mouse Plasma Compound 001 (%) ([7]; 240 min): 35.0%; Condition 2 Conversion (%) ([6]; time 30 min): 0%; Condition 2 Conversion (%) ([6]; time 1 h): 0%; Condition 2 Conversion (%) ([6]; time 4 h): 0%; Condition 2 Conversion (%) ([6]; time 24 h): 0%
COc1ccc([C@@]23CCC(OC(=O)C(C)(C)C)=C[C@@H]2N(C)CC3)cc1OC [Compound 309, [(3aS,7aS)-3a-(3,4-dimethoxyphenyl)-1-methyl-3,4,5,7a-tetrahydro-2H-indol-6-yl]2,2-dimethylpropanoate] | 0 | 0 | 0 | 0 | 0 | 0 | 100.0 | 64.5 | 41.4 | 16.5 | 3.6 | 2.0 | 100.0 | 34.6 | 24.9 | 8.2 | 0.0 | 0.0 | 0 | 0 | Mouse Plasma Compound 001 (%) ([7]; 15 min): 61.7%; Mouse Plasma Compound 001 (%) ([7]; 30 min): 63.7%; Mouse Plasma Compound 001 (%) ([7]; 60 min): 62.6%; Mouse Plasma Compound 001 (%) ([7]; 120 min): 63.2%; Mouse Plasma Compound 001 (%) ([7]; 240 min): 60.9%; Condition 2 Conversion (%) ([6]; time 30 min): 0%; Condition 2 Conversion (%) ([6]; time 1 h): 0%; Condition 2 Conversion (%) ([6]; time 4 h): 0%; Condition 2 Conversion (%) ([6]; time 24 h): 0%

Reference: US20250051277A1, “DELIVERY OF THERAPEUTIC ALKALOID COMPOUNDS” (Sensorium Therapeutics, Inc., priority 2021, published 2025)
